Columns and labels:
human PDE2A3 enzyme = molecular target: T1, human PDE2A3 enzyme (Homo sapiens, UniProt O00408); test: PDE Enzyme Inhibitory Assay (SPA, [3H]cGMP substrate); format: biochemical; conditions: compound 1 μM; [3H]cGMP 77 nM; 60 min at room temperature; read-out: inhibitory rate (%) (1 μM)
T1 construct: Human PDE2A3 full-length gene was transduced into Sf9; His-tag; made in house; host or cells: Sf9 insect cells
Procedure: PDE Enzyme Inhibitory Assay Human PDE2A3 full-length gene was transduced into Sf9, and human PDE2A3 enzyme was purified by His-tag affinity column and gel filtration. The enzyme was stored at −70° C. until use. PDE activity was measured using a SPA (Scintillation Proximity Assay) (GE Healthcare). To evaluate the inhibitory activity of the compound, 10 μl of serial diluted compounds were reacted with 20 μl of PDE enzyme in assay buffer (50 mM HEPES-NaOH, 8.3 mM MgCl2, 1.7 mM EGTA, 0.1% BSA (pH 7.4)) for 30 min. at room temperature. Final concentration of DMSO in the reaction solution was 1 percent. Compounds were tested in duplicate in 96-well half-area plates (Corning) or 384-well OptiPlate (PerkinElmer). To start the reaction, 10 μl of substrate [^3H] cGMP (final concentration 77 nM, PerkinElmer) was added to a total volume of 40 μl. After reaction for 60 min at room temperature, 20 μl of 20 mg/mL yttrium SPA beads containing zinc sulfate was added to terminate the PDE reaction. After being settled for further 1 hour, the assay plates were counted in a scintillation counter (PerkinElmer) to allow calculation of inhibition rate. Inhibition rate was calculated on the basis of 0% control wells with enzyme and DMSO, and 100% control wells without enzyme.

Male C57BL/6 mice = test: Contextual fear conditioning test, MK-801-induced deficits; format: in vivo; conditions: 30 mg/kg p.o. 60 min before test, MK-801 (maleate) 0.08 mg/kg s.c. 30 min before test, n=10, FIG. 1
Procedure: Improvement effect on MK-801 ((5S,10R)-5-methyl-10,11-dihydro-5H-5,10-epiminodibenzo[a,d][7]annulene)-induced disorder in contextual fear conditioning test.
Male C57BL/6 mice were purchased from CLEA Japan, Inc. They were used for an experiment after a habituation period of at least one week after carrying them in the animal experimental facility. They were bred in the animal experimental facility with environment in which 12-hours light-dark cycle was performed, humidity and temperature were controlled, and free water drinking and feeding were allowed. Handling of experimental animals and experimental procedure of this study were approved by the Experimental Animal Ethics Committee of Takeda Pharmaceutical Company Limited.
A test compound was suspended in 0.5% methylcellulose solution at a dose of 30 mg/kg, and orally administered. MK-801 (maleate) (Sigma-Aldrich, St Louis, Mo.) was dissolved in saline at a dose of 0.08 mg/kg, and subcutaneously administered. All drugs were administered to mice at a dose of 10 mL/kg.
Contextual fear conditioning test is widely used as memory and learning test system depending on the hippocampus and amygdala. The improvement effect of test compounds on MK-801-induced deficits was investigated by contextual fear conditioning test. The test compounds and MK-801 (maleate) were administered 60 min and 30 min, respectively, before the test. 0.5% methylcellulose and saline were administered to the control groups 60 min and 30 min, respectively, before the test. 0.5% methylcellulose and MK-801 (maleate) were administered to the vehicle groups 60 min and 30 min, respectively, before the test. […] In the test session on day 2 of the experiment, mice were placed in the same chamber for 7 minutes, and freezing was measured during that period. The freezing was calculated as a percentage of freezing rates during measuring period with use of an automatic analysis software manufactured by the O'Hara & Co., Ltd. All data were shown as the mean+standard error (n=10). […]

T1 sequence (O00408 whole entry): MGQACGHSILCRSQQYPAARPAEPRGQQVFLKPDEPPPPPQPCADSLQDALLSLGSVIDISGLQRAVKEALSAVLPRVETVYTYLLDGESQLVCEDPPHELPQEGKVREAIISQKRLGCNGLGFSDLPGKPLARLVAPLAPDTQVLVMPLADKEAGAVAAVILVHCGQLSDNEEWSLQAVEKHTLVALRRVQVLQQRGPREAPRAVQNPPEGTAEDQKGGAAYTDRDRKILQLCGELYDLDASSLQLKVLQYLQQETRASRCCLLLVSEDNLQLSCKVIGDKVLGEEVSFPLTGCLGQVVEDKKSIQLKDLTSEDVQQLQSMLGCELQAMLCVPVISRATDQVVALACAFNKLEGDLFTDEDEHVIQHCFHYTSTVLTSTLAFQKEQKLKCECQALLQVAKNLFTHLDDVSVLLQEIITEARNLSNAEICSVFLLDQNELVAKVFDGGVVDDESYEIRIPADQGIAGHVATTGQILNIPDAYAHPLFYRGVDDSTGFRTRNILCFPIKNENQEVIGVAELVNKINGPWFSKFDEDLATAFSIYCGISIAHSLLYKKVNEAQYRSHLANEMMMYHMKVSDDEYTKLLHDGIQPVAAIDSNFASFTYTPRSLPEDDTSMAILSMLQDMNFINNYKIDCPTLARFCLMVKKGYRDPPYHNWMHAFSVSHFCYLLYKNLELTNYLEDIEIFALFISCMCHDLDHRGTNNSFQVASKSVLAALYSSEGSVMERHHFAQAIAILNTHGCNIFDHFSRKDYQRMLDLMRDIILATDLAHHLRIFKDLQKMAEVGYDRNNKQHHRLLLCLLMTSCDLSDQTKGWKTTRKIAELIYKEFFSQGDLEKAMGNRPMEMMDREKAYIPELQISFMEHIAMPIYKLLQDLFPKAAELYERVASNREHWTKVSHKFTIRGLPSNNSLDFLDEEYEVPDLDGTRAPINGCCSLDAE

SMILES | inhibition at 1 µM (human PDE2A3 enzyme) | improvement effect on MK-801-induced deficits in contextual fear conditioning test (freezing) (Male C57BL/6 mice)
Cc1ccc(-c2ccn3ncc(C(=O)N[C@@H](c4ccc(OC(F)(F)F)cc4)C(C)(C)O)c3n2)cn1 [Example 69, N-((1S)-2-hydroxy-2-methyl-1-(4-(trifluoromethoxy)phenyl)propyl)-5-(6-methylpyridin-3-yl)pyrazolo[1,5-a]pyrimidine-3-carboxamide] | 100% | improvement effect on MK-801-induced deficits was shown
Cc1cn(-c2nc3c(C(=O)N[C@@H](c4ccc(OC(F)(F)F)cc4)C(C)(C)O)cnn3cc2C)nn1 [Example 80, N-((1S)-2-hydroxy-2-methyl-1-(4-(trifluoromethoxy)phenyl)propyl)-6-methyl-5-(4-methyl-1H-1,2,3-triazol-1-yl)pyrazolo[1,5-a]pyrimidine-3-carboxamide] | 100% | improvement effect on MK-801-induced deficits was shown
COC[C@@H](NC(=O)c1cc(=O)[nH]c2cc(C)cnc12)c1ccc(OC(F)(F)F)cc1 [Example 92, N-((1S)-2-methoxy-1-(4-(trifluoromethoxy)phenyl)ethyl)-7-methyl-2-oxo-1,2-dihydro-1,5-naphthyridine-4-carboxamide] | 100% | 
CC(C)(O)[C@@H](NC(=O)c1cnn2ccc(-c3ccccc3C#N)nc12)c1ccc(OC(F)(F)F)c(F)c1 [Example 101, 5-(2-cyanophenyl)-N-((1S)-1-(3-fluoro-4-(trifluoromethoxy)phenyl)-2-hydroxy-2-methylpropyl) pyrazolo[1,5-a]pyrimidine-3-carboxamide] | 100% | 
Cc1cn(-c2ccn3ncc(C(=O)N[C@@H](c4ccc(OC(F)(F)F)cc4)C(C)(C)O)c3n2)cn1 [Example 115, N-((1S)-2-hydroxy-2-methyl-1-(4-(trifluoromethoxy)phenyl)propyl)-5-(4-methyl-1H-imidazol-1-yl)pyrazolo[1,5-a]pyrimidine-3-carboxamide] | 101% | 
CC1(C)CN(c2ccn3ncc(C(=O)N[C@@H](c4ccc(OC(F)(F)F)cc4)C(C)(C)O)c3n2)CCO1 [Example 124, 5-(2,2-dimethylmorpholin-4-yl)-N-((1S)-2-hydroxy-2-methyl-1-(4-(trifluoromethoxy)phenyl)propyl)pyrazolo[1,5-a]pyrimidine-3-carboxamide] | 99% | 
CC1(C)CCN(c2ccn3ncc(C(=O)N[C@@H](c4ccc(OC(F)(F)F)cc4)C(C)(C)O)c3n2)C1=O [Example 135, 5-(3,3-dimethyl-2-oxopyrrolidin-1-yl)-N-((1S)-2-hydroxy-2-methyl-1-(4-(trifluoromethoxy)phenyl)propyl)pyrazolo[1,5-a]pyrimidine-3-carboxamide] | 100% | 
COC[C@@H](NC(=O)c1cc(=O)[nH]c2cc(OC)cnc12)c1ccc(OC(F)(F)F)c(F)c1 [Example 152, N-((1S)-1-(3-fluoro-4-(trifluoromethoxy)phenyl)-2-methoxyethyl)-7-methoxy-2-oxo-1,2-dihydro-1,5-naphthyridine-4-carboxamide] | 100% | 
Cc1ncn(-c2nc3c(C(=O)N[C@@H](c4ccc(OC(F)(F)F)cc4)C(C)(C)O)cnn3cc2C)n1 [Example 161, N-((1S)-2-hydroxy-2-methyl-1-(4-(trifluoromethoxy)phenyl)propyl)-6-methyl-5-(3-methyl-1H-1,2,4-triazol-1-yl)pyrazolo[1,5-a]pyrimidine-3-carboxamide] | 100% | improvement effect on MK-801-induced deficits was shown
CC(C)(O)[C@@H](NC(=O)c1ccc2cncc(-c3ccccc3)c2n1)c1ccc(OC(F)(F)F)cc1 [Example 164, N-((1S)-2-hydroxy-2-methyl-1-(4-(trifluoromethoxy)phenyl)propyl)-8-phenyl-1,6-naphthyridine-2-carboxamide] | 97% | 

Reference: patent publication US20160159808A1, “HETEROCYCLIC COMPOUND” (TAKEDA PHARMACEUTICAL COMPANY LIMITED, priority 2013, published 2016)
